# Tests used:
# primary murine T-cells = test: Cytokine secretion on protein level in activated primary murine T-cells (13-plex FACS / Luminex, supernatant); type: cell-based, C57BL/6 mice; settings: substance 10^−9M
# Summary of the method: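 T-cells from secondary lymphatic organs of naïve C57BL/6 mice, stimulated with PMA/Ionomycin or IFN-γ; supernatant cytokines measured by 13-plex FACS 48 h and 72 h after stimulation. In another run, PMA/Ionomycin-stimulated cells received compounds at 10^−7, 10^−9 and 10^−11 M, with IFN-γ, IL-17 and IL-10 measured by Luminex.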
# primary human T-cells = test: Cytokine secretion on protein level in activated primary human T-cells (13-plex FACS / Luminex, supernatant); type: cell-based; settings: substance 10^−9M
# Summary of the method: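 PMA/Ionomycin- or IFN-γ-activated cells (48 h) treated with tripeptides; supernatant 13-plex FACS at 48 h and 72 h post-stimulation. Luminex run: PMA/Ionomycin plus compound at 10^−7, 10^−9, 10^−11 M; IFN-γ, IL-17, IL-10 for T cells, IFN-γ for HaCaT.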
# [1] = primary murine T-cells stimulated with PBS
# [2] = primary murine T-cells stimulated with PMA/Ionomycin
# [3] = primary human T-cells stimulated with IFN-γ
# [4] = primary human T-cells stimulated with PBS
# [5] = primary human T-cells stimulated with PMA/Ionomycin
substance,measurement,setting,value
H-(L)-Om-(L)-Pro-Aib-OH [Example 11],IL-13 cytokine concentration,primary murine T-cells; [1],0 pg/mL
same,IL-17 cytokine concentration,primary murine T-cells; [1],0 pg/mL
same,IL-21 cytokine concentration,primary murine T-cells; [1],0 pg/mL
same,IL-22 cytokine concentration,primary murine T-cells; [1],66.43 pg/mL
same,IL-27 cytokine concentration,primary murine T-cells; [1],141.82 pg/mL
same,TNF-α cytokine concentration,primary murine T-cells; [1],0 pg/mL
same,IFN-γ cytokine concentration,primary murine T-cells; [2],2756.75 pg/mL
same,IL-1 cytokine concentration,primary murine T-cells; [2],178.78 pg/mL
same,IL-2 cytokine concentration,primary murine T-cells; [2],261.53 pg/mL
same,IL-4 cytokine concentration,primary murine T-cells; [2],117.11 pg/mL
same,IL-5 cytokine concentration,primary murine T-cells; [2],513.39 pg/mL
same,IL-6 cytokine concentration,primary murine T-cells; [2],333.86 pg/mL
same,IL-10 cytokine concentration,primary murine T-cells; [2],1302.16 pg/mL
same,IL-13 cytokine concentration,primary murine T-cells; [2],0 pg/mL
same,IL-17 cytokine concentration,primary murine T-cells; [2],244.88 pg/mL
same,IL-21 cytokine concentration,primary murine T-cells; [2],0 pg/mL
same,IL-22 cytokine concentration,primary murine T-cells; [2],94.31 pg/mL
same,IL-27 cytokine concentration,primary murine T-cells; [2],99.05 pg/mL
same,TNF-α cytokine concentration,primary murine T-cells; [2],86.61 pg/mL
same,IL-1 cytokine concentration,primary human T-cells; [3],0 pg/mL
same,IL-2 cytokine concentration,primary human T-cells; [3],212.98 pg/mL
same,IL-4 cytokine concentration,primary human T-cells; [3],0 pg/mL
same,IL-5 cytokine concentration,primary human T-cells; [3],83.3 pg/mL
same,IL-6 cytokine concentration,primary human T-cells; [3],108.08 pg/mL
same,IL-9 cytokine concentration,primary human T-cells; [3],8.15 pg/mL
same,IL-10 cytokine concentration,primary human T-cells; [3],50.11 pg/mL
same,IL-12p70 cytokine concentration,primary human T-cells; [3],0 pg/mL
same,IL-13 cytokine concentration,primary human T-cells; [3],180.41 pg/mL
same,IL-17 cytokine concentration,primary human T-cells; [3],0 pg/mL
same,IL-22 cytokine concentration,primary human T-cells; [3],0 pg/mL
same,TNF-α cytokine concentration,primary human T-cells; [3],52.55 pg/mL
same,IL-1 cytokine concentration,primary human T-cells; [4],0 pg/mL
same,IL-2 cytokine concentration,primary human T-cells; [4],0 pg/mL
same,IL-4 cytokine concentration,primary human T-cells; [4],121.69 pg/mL
same,IL-5 cytokine concentration,primary human T-cells; [4],0 pg/mL
same,IL-6 cytokine concentration,primary human T-cells; [4],172.14 pg/mL
same,IL-9 cytokine concentration,primary human T-cells; [4],10.84 pg/mL
same,IL-10 cytokine concentration,primary human T-cells; [4],0 pg/mL
same,IL-12p70 cytokine concentration,primary human T-cells; [4],0 pg/mL
same,IL-13 cytokine concentration,primary human T-cells; [4],187.86 pg/mL
same,IL-17 cytokine concentration,primary human T-cells; [4],0 pg/mL
same,IL-22 cytokine concentration,primary human T-cells; [4],0 pg/mL
same,INF-α cytokine concentration,primary human T-cells; [4],505.68 pg/mL
same,TNF-α cytokine concentration,primary human T-cells; [4],52.55 pg/mL
same,IL-1 cytokine concentration,primary human T-cells; [5],677.32 pg/mL
same,IL-2 cytokine concentration,primary human T-cells; [5],3920.52 pg/mL
same,IL-4 cytokine concentration,primary human T-cells; [5],112.94 pg/mL
same,IL-5 cytokine concentration,primary human T-cells; [5],525.15 pg/mL
same,IL-6 cytokine concentration,primary human T-cells; [5],1474.06 pg/mL
same,IL-9 cytokine concentration,primary human T-cells; [5],380.3 pg/mL
same,IL-10 cytokine concentration,primary human T-cells; [5],563.89 pg/mL
same,IL-12p70 cytokine concentration,primary human T-cells; [5],0 pg/mL
same,IL-13 cytokine concentration,primary human T-cells; [5],1258.74 pg/mL
same,IL-17 cytokine concentration,primary human T-cells; [5],3306.09 pg/mL
same,IL-22 cytokine concentration,primary human T-cells; [5],0 pg/mL
same,INF-α cytokine concentration,primary human T-cells; [5],9554.27 pg/mL
same,TNF-α cytokine concentration,primary human T-cells; [5],2209.22 pg/mL
